Columns and labels:
[1] = tested on: AgMaT1; assay: Transport of radiolabelled mannitol in yeast cells expressing AgMaT1, with competitors; format: cell-based, Apium graveolens L.; conditions: MaDH4 S. cerevisiae expressing AgMaT1; 500 μM [3H]-mannitol, pH 4.5; competitor added 30 seconds before
Experimental: The cells were cultured until the start of the logarithmic phase (corresponding to an absorbance of […]), washed in distilled water and resuspended at 1% (weight/volume) in SC medium buffered to pH 4.5 with 25 mM MES. A 100 μl aliquot fraction of the cell suspension was incubated for 60, 120, 180 and 300 seconds in 100 μl of a solution containing of 500 μM [^3H]-mannitol. The reaction was stopped by adding 8 ml of water at 4° C. and by filtration through glass fibre filters (Sartorius). The radioactivity incorporated in the yeast cells was determined by counting using liquid scintillation (Packard). For the experiments with inhibitors or competitors, the product was added 30 seconds before the radioactive mannitol.
For a subsequent characterization of the function of the AgMaT1 protein, it was necessary to express the carrier in a functional manner in a heterologous system such as yeast cells. The cDNA of AgMaT1 was sub-cloned in the PstI/XhoI sites of the YEP 112A1XE shuttle vector which has a promoter/terminator box of the gene of alcohol dehydrogenase ADH1 of S. cerevisiae (Riesmeier et al., 1992). The competent MaDH4 cells were transformed with this construction and YEP 112A1XE was used as control.
All of the constructions were firstly tested for their ability to grow on mannitol as the only carbon source. […] The cells expressing AgMaT1 could grow very well on this polyol. In order to directly test the ability of the transformed cells to transport mannitol, the yeast cells were incubated in a medium containing [^3H]-mannitol for a few seconds to several minutes, the cells were washed and the radioactivity absorbed was measured by […] scintillation counting. […] However, the MaDH4 yeast strains, expressing AgMaT1, transport the [^3H]-mannitol at high speeds when they grow on a medium containing mannitol. The same result is obtained with the cells of transformed yeast growing on glycerol (data not indicated).

[2] = tested on: AgMaT1 expression; conditions: saline stress for 4 weeks, daily watering with 300 mM of NaCl; RT-PCR
Experimental: The total RNA of celery phloem was isolated according to the method of Kay et al. (1987). The first strand of cDNA was reverse transcribed from the total RNA with the oligo dT primer by using the reverse transcriptase SuperScript™ II (Stratagene). […] The PCR conditions were as follows: 2 minutes at 95° C. then 30 cycles comprising denaturation for 30 seconds at 95° C., fixation for one minute at 47° C. and extension for 45 seconds at 72° C. The PCR products were analyzed by agarose gel electrophoresis and the intensity of the signal obtained was quantified using Photoshop 5.0 software (Adobe systems Inc.). The extension factor elF4A(10) (Mandel et al., 1995) was used as control gene, the expression of which is invariable.
The expression of AgMaT1 was monitored in plants having been subjected to saline stress for 4 weeks (daily watering with 300 mM of NaCl, Noiraud et al., 2000). The phloem of these plants as well as of the corresponding control plants (watered with water not containing NaCl) was removed in order to extract the RNA which was used to carry out RT-PCR reactions.

Compound | inhibition of the absorption of mannitol [1] | expression of AgMaT1 in the phloem (control plants taken as base 100) [2]
OC[C@@H](O)[C@H](O)[C@@H](O)CO [xylitol] | inhibiting by half | 
[Cl-].[Na+] [NaCl] |  | 500%
OC[C@@H](O)[C@H](O)[C@H](O)[C@@H](O)CO [dulcitol] | inhibiting by half | 
O[C@H]1[C@H](O)[C@@H](O)[C@H](O)[C@@H](O)[C@H]1O [myo-inositol] | inhibiting by half | 
OC[C@@H](O)[C@@H](O)[C@H](O)[C@@H](O)CO [sorbitol] | inhibiting by half | 

From patent US7098313B2, “DNA sequences coding for a polyol carrier and their use, in particular for the preparation of transgenic plants” (Centre National de la Recherche Scientifique, priority 2000, dated 2006)
